According to patent publication US20260060960A1, “GAMMA-SECRETASE INHIBITORS FOR USE IN THE TREATMENT OF INHERITED EPIDERMOLYSIS BULLOSA” (OSPEDALE PEDIATRICO BAMBINO GESU', priority 2022, published 2026):

How the values were obtained:
[1] = test system: primary fibroblasts from RDEB patients (RDEB-FBs); test: Type I collagen degradation assay; assay type: cell-based, human; conditions: presence of TGF-β1, PF-03084014 5 μM, DAPT 20 μM
Procedure: The ability of RDEB-FBs to degrade a thin film of type I collagen (COL1) was assessed as previously described. Briefly, COL1 from calf hides (Symatese, Chaponost, France), was diluted at a concentration of 375 μg/ml in 13 mM hydrochloric acid. Diluted COL1 solution was rapidly mixed on ice with one quarter-volume of a neutralizing phosphate buffer (20 ml of 0.2 M NaH2PO4 pH 7.5, 20 ml 0.1 M NaOH, 4.15 ml 5 M NaCl) and gently dispensed into 24-well plates. COL1 gelation was obtained maintaining COL1-coated plates at 37° C. for 2 h. COL1 gels were dehydrated overnight in a laminar flow hood, washed with sterile water and PBS containing Penicillin/Streptomycin. Then, a droplet of complete medium containing 12.500 RDEB-FBs was gently poured in the center of the well, and cells were allowed to adhere in a humidified chamber for 3 h. […] At the end of the incubation period, RDEB-FBs were detached by trypsin/EDTA and counted to be sure to evaluate collagenolytic activity of the same number of cells per condition. The residual COL1 film was stained for 15 min with a solution of Coomassie Brilliant Blue R-250 Dye (Thermo Fisher Scientific), the excess of stain was removed with a destain solution (30% ethanol, 7.5% CH3COOH). Images were acquired with a 10× objective.

[2] = test system: α-SMA, CNN1, TAGLN, JAG1, HES1, POSTN, Pri-miR-143/145 mRNA; test: Real-time PCR of contractile/fibrotic markers in RDEB fibroblasts; assay type: cell-based, human; conditions: RDEB-FBs
Excerpt: Total was extracted by TRIzol (Thermo Fisher Scientific) by monolayer fibroblast cultures, following manufacturer's instructions. RNA was reverse transcribed and amplified by using Power SYBR Green RNA-to-Ct 1-Step Kit (Thermo Fisher Scientific) on QuantStudio™ 7 Pro Real-Time PCR System (Thermo Fisher Scientific). Primer pairs used in this study are listed in Table 2: ACTA2, actin alpha 2, smooth muscle; CNN1, calponin; COL1A1, collagen type I alpha 1 chain; GAPDH, glyceraldehyde-3-phosphate dehydrogenase; HES1, hes family bHLH transcription factor 1; JAG1, jagged canonical Notch ligand 1; NOTCH1, notch receptor 1; POSTN, periostin; TAGLN, transgelin.
Relative mRNA expression levels were measured by the 2−ΔΔCT method. Hypoxanthine phosphoribosyltransferase 1 (HPRT1) was used as housekeeping gene to normalize mRNA expression levels.

## CCC[C@H](N[C@H]1CCc2cc(F)cc(F)c2C1)C(=O)Nc1cn(C(C)(C)CNCC(C)(C)C)cn1 [PF-03084014, (S)-2-((S)-5,7-difluoro-1,2,3,4-tetrahydronaphthalen-3-ylamino)-N-(1-(2-methyl-1-(neopentylamino)propan-2-yl)-1H-imidazol-4-yl)pentanamide]
[1]
  type I collagen degradation areas: increased number and size of collagen degradation areas
[2]
  mRNA levels of HES1, periostin and Pri-miR-143/145: context-dependent downregulation
[2]; basal conditions and presence of TGF-β1
  mRNA levels of contractile/fibrotic markers (real-time PCR): down-regulation of a selection of contractile/fibrotic markers, including α-SMA, CNN1, TAGLN and JAG1
